# Literature values, collected in US20020032197A1 (priority 1998, published 2002).
# Assays:
# women with PMS = conditions: in vivo
# [1] = test system: healthy volunteers exposed to an acute nociceptive stimulus; conditions: single oral dosing, 10 healthy volunteers
# benzodiazepine receptors = conditions: in vitro
# opioid receptors = conditions: in vitro
# [2] = doses as high as 600 mg daily
# monoamine metabolism = conditions: humans
# MAO-A [3] = target: T1, MAO-A (Homo sapiens, UniProt P21397)
# T1 sequence (P21397 1-527): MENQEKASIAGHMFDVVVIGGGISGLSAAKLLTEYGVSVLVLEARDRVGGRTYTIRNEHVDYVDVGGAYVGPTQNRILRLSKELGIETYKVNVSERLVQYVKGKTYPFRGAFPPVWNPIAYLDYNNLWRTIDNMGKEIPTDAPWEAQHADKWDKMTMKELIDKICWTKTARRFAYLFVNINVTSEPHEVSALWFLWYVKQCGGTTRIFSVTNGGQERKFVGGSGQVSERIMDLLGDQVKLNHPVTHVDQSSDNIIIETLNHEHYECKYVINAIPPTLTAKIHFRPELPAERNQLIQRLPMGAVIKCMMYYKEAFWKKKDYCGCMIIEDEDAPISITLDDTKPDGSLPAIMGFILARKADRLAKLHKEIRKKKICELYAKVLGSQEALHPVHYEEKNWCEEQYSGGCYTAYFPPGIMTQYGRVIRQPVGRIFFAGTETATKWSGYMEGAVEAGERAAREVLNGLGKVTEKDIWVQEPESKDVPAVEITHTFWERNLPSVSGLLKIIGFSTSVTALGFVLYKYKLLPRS
# dopaminergic receptors = conditions: in vitro
# MAO-A [4] = target: T1, MAO-A; conditions: ex vivo
# [5] = test system: sleep of healthy volunteers
# adrenergic receptors = conditions: in vitro
# young healthy adults = conditions: 5 mg dose
# MAO-A [6] = target: T1, MAO-A; remark: listed apart in the source
# individuals with RSBD = conditions: in vivo
# [7] = fluoxetine, bupropion and placebo compared
smiles,measurement,setting,value
CNCCC(Oc1ccc(C(F)(F)F)cc1)c1ccccc1 (stereo not shown) [fluoxetine],efficacy and patient satisfaction in women with PMDD,women with PMDD; [7],greater
same,tolerability in women with PMDD,women with PMDD; [7],well tolerated
same,treatment of a range of symptoms in women with PMS,women with PMS,effective and well-tolerated
CNCCCN1c2ccccc2CCc2ccccc21 [desipramine],antinociceptive effect,[1],antinociceptive effect
"O=C(NCCN1CCOCC1)c1ccc(Cl)cc1 [moclobemide, p-chloro-N-(2-morpholinoethyl)-benzamide]",affinity for benzodiazepine receptors,benzodiazepine receptors,no appreciable affinity
same,affinity for opioid receptors,opioid receptors,no appreciable affinity
same,antinociceptive effect,[1],antinociceptive effect
same,tolerability,[2],well-tolerated
same,bioavailability,after multiple administrations,approx. 85%
same,number of different metabolites,in vivo,at least 19
same,elimination,patients with hepatic dysfunction,impaired
same,absorption,single-dose oral administration,almost completely absorbed
same,"plasma levels of homovanillic acid, 3,4-dihydroxyphenylacetic acid, 3-methoxy-4-hydroxyphenylglycol and 5-hydroxyindoleacetic acid",monoamine metabolism,reductions
same,in vitro binding to MAO-A,MAO-A [3],weak
same,affinity for dopaminergic receptors,dopaminergic receptors,no appreciable affinity
same,time to recovery of enzyme activity (reversible binding),MAO-A [4],≤ 16 h
same,effects on sleep in comparison to other MAO inhibitors,[5],weak
same,affinity for adrenergic receptors,adrenergic receptors,no appreciable affinity
COCCCC/C(=N\OCCN)c1ccc(C(F)(F)F)cc1 [fluvoxamine],antinociceptive effect,[1],antinociceptive effect
COc1ccc2[nH]cc(CCNC(C)=O)c2c1 [Melatonin],sleep propensity and duration of sleep,young healthy adults,increased sleep propensity and the duration of sleep
CC(NC(C)(C)C)C(=O)c1cccc(Cl)c1 (stereo not shown) [bupropion],efficacy and patient satisfaction in women with PMDD,women with PMDD; [7],some improvement
"O=C(NCC[N+]1([O-])CCOCC1)c1ccc(Cl)cc1 [moclobemide-N-oxide, p-chloro-N-(2-morpholinoethyl)-benzamide-N′-oxide]",MAO-A inhibitory activity,MAO-A [6],MAO-A inhibitory activity
CN[C@H]1CC[C@@H](c2ccc(Cl)c(Cl)c2)c2ccccc21 [sertraline],"treatment of PMDD, symptomatic improvement and change in reported functional impairment",women with PMDD; versus placebo,significantly better than placebo
NNCCc1ccccc1 [phenelzine],reduction of PTSD symptoms versus placebo,PTSD patients; Frank et al.,superior to placebo
same,PTSD patients helped,PTSD patients; open trial (Davidson et al.),8 of 11
same,response of patients with traumatic war neuroses,"PTSD patients; open trial, 5 patients, after failing antipsychotics, tricyclics and psychotherapy",responded positively
same,clinical improvement in PTSD patients,PTSD patients; treated openly for 4 to 18 weeks (Lerer et al.),only modest clinical improvement
O=C1CN=C(c2ccccc2Cl)c2cc([N+](=O)[O-])ccc2N1 [clonazepam],cases of RSBD in which effective,individuals with RSBD,approximately 90%
